Experimental data reported in patent publication US4693884A, “Technetium-99m triphosphonates and tetraphosphonates for the scintigraphic visualization of res-containing organs and lymph vessels, and a process for their preparation” (Hoechst Aktiengesellschaft, priority 1982, dated 1987).

Assays:
[1] = Accumulation of phosphoric acid derivatives investigated as technetium-99m diagnostic agents (bone, liver, RES); conditions: in vivo
From the text: It is possible to use phosphoric acid derivatives, particularly organic phosphonic acid derivatives, for bone scintigraphy. Many compounds have been investigated in the search for derivatives suitable as a technetium-99m diagnostic agent for bone.

[2] = in vivo; cited from earlier work
[3] = Comparison of 99mTc TPB, 99mTc PTP and 99mTc phytate after intravenous injection to dogs; format: in vivo
[4] = Example 2: organ distribution in rats, frozen solution labeled with 99mTc; format: in vivo, Sprague-Dawley rats; conditions: femoral vein
Protocol: 400 mg of 2,4,4-triphosphonobutyric acid are dissolved in about 30 ml of double-distilled water. The pH of the solution, which is about 1.7 after this, is then adjusted to pH 6 using 1N NaOH. 8 mg of SnCl2.2H2 O in 1 ml of 0.1N HCl are added to this solution, and the pH is again adjusted to 6 using 0.1N NaOH, and then the solution is made up to 40 ml. All the operations are carried out under a protective atmosphere of nitrogen gas. The solution thus obtained is frozen in individual 1 ml portions.
After 3 days, the solution is thawed and reacted with 1 ml of a ^99m Tc-pertechnetate solution which contains 4.44 MBq (120 μCi) of ^99m Tc. After 30 minutes, Sprague-Dawley rats weighing 200 g each receive 0.5 ml of this solution injected into the femoral vein. 3 animals are sacrificed with ether at 30 minutes and at 2 hours after the injection, and the organ distribution is determined.

[5] = Organ distribution of 99mTc-labeled substances in rats 30 minutes after injection as a function of the amount of substance administered; format: in vivo; conditions: for Blood/ml / Kidneys / Liver / Lung / Remainder of body / Spleen / Thyroid / tissue uptake at 0.5 h: 30 min after injection, n = 3; for tissue uptake at 0.5 h: rat, in vivo, iv, 0.05 mg, read-out: Femur/g
Protocol: Assuming that 2-20 mg of TPB, ETP, PTP or phytate are administered to humans, and assuming that the weight of human is 80 kg, this corresponds to an amount administered of 25-250 μg/kg of body weight. Calculating on the basis of the body weight of rats weighing 200 g, then administration of 5-50 μg of TPB, ETP, PTP or phytate per rat exactly reflects the relationships.
Organ distribution of ^99m Tc TPB, ^99m TC ETP and ^99m Tc
phytate in rats (n = 3) 30
minutes after injection as a function of the amount of substance
(all data as a percentage of the amount of activity administered)

[6] = Lymphatic scintigraphy on dogs; format: in vivo, beagle dogs
Protocol: In order to check the utilizability of the new diagnostic agent for lymphatic scintigraphy, lymphatic scintigraphy using ^99m Tc TPB was carried out on dogs.
A TPB labeling unit which contained CaCl2 as described in Example 4 was prepared with 5 ml of ^99m Tc-pertechnetate solution which contained 5 mCi of ^99m Tc per ml. Adult beagle dogs each received 0.3-0.4 ml of this solution injected subcutaneously into the hind paw. The change in the distribution of radioactivity with time over the hind legs was then followed using a gamma camera for 4 hours. The site of injection was shielded with lead in each case.

[7] = second amount column (printed 50 μg)
[8] = third amount column (printed 50 μg)
[9] = all amounts of substance investigated

For phytate [reference compound], the accumulation in bone [1] is listed as “higher”, the “accumulation in the RES” value [1] is listed as “lower” and the “accumulation of activity in the RES” value [2] is listed as “low compared with the products mentioned above”. The “excretion of activity with the urine” value ([3]; dog, in vivo, iv, 0.5 h) was 6.6 % of the test dose.
In the case of O=C(O)C(CC(P(=O)(O)O)P(=O)(O)O)P(=O)(O)O (stereo not shown) [TPB, 2,4,4-triphosphonobutyric acid], the Blood/ml ([4]; 30 min p.i.) is reported as 0.03 percentage of the dose adminis, the Kidneys ([4]; 30 min p.i.) is reported as 1.74 percentage of the dose adminis and the Liver ([4]; 30 min p.i.) is reported as 86.5 percentage of the dose adminis. The Remainder of body ([4]; 30 min p.i.) was 9.08 percentage of the dose adminis, the Spleen ([4]; 30 min p.i.) was 2.40 percentage of the dose adminis and the Thyroid ([4]; 30 min p.i.) was 0.05 percentage of the dose adminis. The urine ([4]; 30 min p.i.) was 1.75 percentage of the dose adminis, the Blood/ml ([4]; 2 hours p.i.) was 0.01 percentage of the dose adminis and the Kidneys ([4]; 2 hours p.i.) was 1.12 percentage of the dose adminis. For the same compound, the Liver ([4]; 2 hours p.i.) was 88.3 percentage of the dose adminis, the Remainder of body ([4]; 2 hours p.i.) was 8.27 percentage of the dose adminis and the Spleen ([4]; 2 hours p.i.) was 3.06 percentage of the dose adminis. The Thyroid ([4]; 2 hours p.i.) was 0.04 percentage of the dose adminis, the urine ([4]; 2 hours p.i.) was 2.02 percentage of the dose adminis and the tissue uptake at 0.5 h ([4]; rat, bone, iv, 30 min p.i.) was 0.17 %ID/g. For the same compound, the tissue uptake at 2 h ([4]; rat, bone, iv, 2 hours p.i.) was 0.22 %ID/g, the Blood/ml ([5]; (50 μg)) was 0.05 percentage of the amount of ac and the Kidneys ([5]; (50 μg)) was 0.12 percentage of the amount of activity administered. The Liver ([5]; (50 μg)) was 95.8 percentage of the amount of activity administered, the Lung ([5]; (50 μg)) was 0.19 percentage of the amount of activity administered and the Remainder of body ([5]; (50 μg)) was 5.6 percentage of the amount of activity administered. For the same compound, the Spleen ([5]; (50 μg)) was 1.30 percentage of the amount of activity administered, the Thyroid ([5]; (50 μg)) was 0.03 percentage of the amount of activity administered and the Blood/ml [5, 7] was 0.16 percentage of the amount of ac. The Kidneys [5, 7] was 0.37 percentage of the amount of activity administered, the Liver [5, 7] was 92.7 percentage of the amount of activity administered and the Lung [5, 7] was 0.30 percentage of the amount of activity administered. For the same compound, the Remainder of body [5, 7] was 11.5 percentage of the amount of activity administered, the Spleen [5, 7] was 0.88 percentage of the amount of activity administered and the Thyroid [5, 7] was 0.03 percentage of the amount of activity administered. The Blood/ml [5, 8] was 0.19 percentage of the amount of ac, the Kidneys [5, 8] was 0.39 percentage of the amount of activity administered and the Liver [5, 8] was 88.7 percentage of the amount of activity administered. The Lung [5, 8] was 0.29 percentage of the amount of activity administered, the Remainder of body [5, 8] was 12.6 percentage of the amount of activity administered and the Spleen [5, 8] was 0.99 percentage of the amount of activity administered. For the same compound, the Thyroid [5, 8] was 0.03 percentage of the amount of activity administered, the “accumulation in the liver and spleen compared with phytate” value [5, 9] was “markedly higher than that of phytate” and the “accumulation of activity in the kidneys, blood, femur and remainder of the body compared with phytate” value [5, 9] was “clearly lower than with phytate”. The “suitability as diagnostic agent for visualization of RES-containing organs compared with 99mTc phytate” value ([5]; deduction from the animal experiments) was “unambiguously superior”, the tissue uptake at 0.5 h [5, 7] was 0.29 %ID/g and the tissue uptake at 0.5 h [5, 8] was 0.3 %ID/g. The accumulation in bone [1] was “virtually not at all”, the “accumulation in the liver” value [1] was “very preferentially accumulated in the liver” and the “suitability for lymphatic scintigraphy” value [6] was “also suitable for lymphatic scintigraphy”. For the same compound, the “excretion of activity with the urine” value ([3]; 30 min after injection, intravenous, dogs) was 0.6 % of the test dose, the “excretion of activity with the urine, compared with phytate” value ([3]; intravenous, dogs) was “markedly less” and the “decrease in activity via the liver after accumulation in the liver is complete” value ([3]; intravenous, dogs, compared with phytate) was “slower”.
